Experimental data taken from patent US9717717B1, “Methods of treating cancer through the inhibition of USP7 and immune system modulation” (Progenra, Inc., priority 2015, dated 2017).

Experiments:
HDM2 = assay: Immunoblot of HDM2 level in treated Jurkat cells; format: cell-based; conditions: immunoblot (FIG. 6)
Description: (§1) FIG. 6 graphically illustrates a decrease in USP7 oncogenic substrates HDM2 and UHRF1 levels in Jurkat cells treated with the USP7i compound 5. 20 μg total cell lysates from each samples were separated on 10% SDS-PAGE and immunoblotted with antibodies against HDM2, UHRF1 and Actin (loading control).
(§2) Jurkat cells were incubated with an exemplary compound of the present invention (e.g., compound 5), washed, and incubated for an additional 0-96 h. USP7 was immunoprecipitated from lysates and USP7 activity measured. […] Total cell deubiquitinase activity can be performed to determine selectivity of these compounds (FIG. 5C). These experiments delineate a simple, powerful biomarker for determining the dose-efficacy relationship in the pre-clinical/clinical evaluation of irreversible USP7 inhibitors. Inhibitors were also tested in cells for effects on various PD markers, including two major USP7 substrates, HDM2 and UHRF1.

USP7core WT = biological target: T1, USP7core WT (Homo sapiens, UniProt Q93009); assay: LC-MS detection of covalent adduct with purified USP7core WT; format: binding; conditions: 5 μM USP7core WT, 100 μM compound, room temperature, 4 hrs
T1 construct: 5 μM purified USP7core WT or active site cysteine mutant C223A were incubated with 100 μM Compound 5
T1 sequence (Q93009 214-521 limits assumed): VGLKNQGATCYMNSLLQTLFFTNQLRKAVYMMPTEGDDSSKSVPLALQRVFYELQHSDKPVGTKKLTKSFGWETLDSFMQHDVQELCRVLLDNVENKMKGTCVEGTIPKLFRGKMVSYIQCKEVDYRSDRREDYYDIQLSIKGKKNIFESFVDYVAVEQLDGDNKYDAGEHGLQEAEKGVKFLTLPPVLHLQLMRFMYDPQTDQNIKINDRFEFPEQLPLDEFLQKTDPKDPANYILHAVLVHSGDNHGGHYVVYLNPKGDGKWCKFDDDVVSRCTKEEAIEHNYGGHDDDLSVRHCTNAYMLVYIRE
Description: (§3) FIG. 4 provides data showing an example of the covalent irreversible nature of disclosed USP7 inhibitors. 5 μM purified USP7core WT or active site cysteine mutant C223A were incubated with 100 μM Compound 5 or DMSO at room temperature for 4 hrs, and then the protein/compound reaction products were mixed with equal volume of 0.1% Trifluoroacetic acid (TFA) before LC-MS injection. The samples were analyzed by reverse-phase liquid chromatography coupled to UV and MS detection (Agilent, 6220 Accurate-Mass Time-of-Flight (TOF) LC/MS). […] FIG. 4 provides data showing an example of the covalent irreversible nature of disclosed USP7 inhibitors. 5 μM purified USP7core WT or active site cysteine mutant C223A were incubated with 100 μM Compound 5 or DMSO at room temperature for 4 hrs, and then the protein/compound reaction products were mixed with equal volume of 0.1% Trifluoroacetic acid (TFA) before LC-MS injection. The samples were analyzed by reverse-phase liquid chromatography coupled to UV and MS detection (Agilent, 6220 Accurate-Mass Time-of-Flight (TOF) LC/MS).

USP7 = biological target: T2, USP7 (Homo sapiens, UniProt Q93009); assay: DUB activity of USP7 immunoprecipitated from treated Jurkat cells (Ub-EKL assay); format: cell-based; conditions: for USP7 catalytic activity returned after washout: Jurkat cells exposed for 2 hours
T2 construct: endogenous in cells; host or cells: Jurkat
T2 sequence (Q93009 whole entry): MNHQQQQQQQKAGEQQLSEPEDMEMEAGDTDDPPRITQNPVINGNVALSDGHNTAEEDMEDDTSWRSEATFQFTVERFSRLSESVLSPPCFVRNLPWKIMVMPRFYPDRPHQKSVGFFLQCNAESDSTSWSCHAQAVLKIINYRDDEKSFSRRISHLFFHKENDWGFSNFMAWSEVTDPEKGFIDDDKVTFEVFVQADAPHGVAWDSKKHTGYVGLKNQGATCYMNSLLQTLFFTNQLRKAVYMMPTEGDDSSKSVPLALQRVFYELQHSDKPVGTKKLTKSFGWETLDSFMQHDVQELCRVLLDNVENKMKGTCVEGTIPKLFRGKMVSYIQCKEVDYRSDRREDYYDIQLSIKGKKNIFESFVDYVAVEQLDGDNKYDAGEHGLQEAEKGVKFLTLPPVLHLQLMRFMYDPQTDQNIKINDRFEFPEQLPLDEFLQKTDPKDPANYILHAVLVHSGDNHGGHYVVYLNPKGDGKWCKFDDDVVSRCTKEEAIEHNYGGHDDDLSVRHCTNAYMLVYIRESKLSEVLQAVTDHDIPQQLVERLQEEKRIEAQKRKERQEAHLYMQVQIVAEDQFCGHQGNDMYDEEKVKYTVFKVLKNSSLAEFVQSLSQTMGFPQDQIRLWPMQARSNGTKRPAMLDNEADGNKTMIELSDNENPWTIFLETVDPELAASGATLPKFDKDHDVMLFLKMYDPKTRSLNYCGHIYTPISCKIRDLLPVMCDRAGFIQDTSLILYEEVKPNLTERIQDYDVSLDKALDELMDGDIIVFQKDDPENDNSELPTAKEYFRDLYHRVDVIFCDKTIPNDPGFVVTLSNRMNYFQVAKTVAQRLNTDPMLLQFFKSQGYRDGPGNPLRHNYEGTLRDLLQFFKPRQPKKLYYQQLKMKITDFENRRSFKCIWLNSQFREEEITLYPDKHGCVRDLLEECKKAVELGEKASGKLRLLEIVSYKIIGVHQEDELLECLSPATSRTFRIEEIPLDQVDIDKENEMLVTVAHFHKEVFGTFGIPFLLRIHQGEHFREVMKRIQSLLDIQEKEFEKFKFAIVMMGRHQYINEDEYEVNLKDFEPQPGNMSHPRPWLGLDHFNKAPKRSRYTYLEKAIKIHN
Description: FIG. 5A-FIG. 5C graphically illustrate that the disclosed USP7 inhibitors of the invention are irreversible inhibitors. Jurkat cells were treated with 10 μM USP7i for indicated time period (FIG. 5A) or pulse treated for 2 h with 10 μM compound 5 (FIG. 5B), washed and incubated for the indicated time period followed by DUB activity measurement of immunoprecipitated USP7 as well as total cell lysate (FIG. 5C) using Ub-EKL assay as described previously (U.S. Pat. No. 8,680,139). A portion of the immunoprecipitated USP7 is separated on 10% SDS-PAGE and immunoblotted with anti-USP7 antibody to detect the level of USP7 protein (shown at the top of graphs in FIG. 5A and FIG. 5B). […] Jurkat cells were exposed to Compound 5 for 2 hours and the compounds were washed away followed by incubation for various time points. Cells were harvested, lysed and their USP7 immunoprecipitated and washed with buffer. […] Jurkat cells were incubated with an exemplary compound of the present invention (e.g., compound 5), washed, and incubated for an additional 0-96 h. USP7 was immunoprecipitated from lysates and USP7 activity measured. […] Total cell deubiquitinase activity can be performed to determine selectivity of these compounds (FIG. 5C). These experiments delineate a simple, powerful biomarker for determining the dose-efficacy relationship in the pre-clinical/clinical evaluation of irreversible USP7 inhibitors. Inhibitors were also tested in cells for effects on various PD markers, including two major USP7 substrates, HDM2 and UHRF1.

USP7 core C223A = USP7 core C223A (Homo sapiens, UniProt Q93009, C223A); assay: LC-MS detection of covalent adduct with USP7 core active site cysteine mutant C223A; format: binding; conditions: 5 μM C223A, 100 μM compound, room temperature, 4 hrs
Sequence of USP7 core C223A (Q93009 214-521 C223A limits assumed): as the sequence (Q93009 214-521 limits assumed) above, with C10A counted along it
Description: as §3

Murine Tregs = assay: 3-day Treg suppression assay (CFSE-labeled T effector cell proliferation, FACS); format: cell-based; conditions: Tregs pre-treated with 10 μM for 2 h, washed (FIG. 7)
Description: FIG. 7 graphically illustrates the inhibition of Treg functions after treatment with USP7 inhibitor compound 5. Murine Tregs were pre-treated with compound 5 for 2 hrs, washed and incubated with carboxyfluorescein succinimidyl ester (CFSE) labeled T effector cells at varying concentrations for 3 days. T effector cell proliferation was monitored using FACS analysis. Percentage proliferation is plotted using Graphpad prism.
Initial in vitro determination of the effect of compounds on the Treg-Teff system was performed by co-culturing drug pretreated Treg cell with Teff cells for three days and determining the Teff proliferation by flow cytometry. The compounds that were active in enhancing Teff growth were then examined for their effect on biomarkers. The most interesting compounds were tested for their effect on tumor growth in immune competent mice inoculated with lung cancer cells subcutaneously.
3-day Treg suppression assay in which isolated Tregs were treated with DMSO or experimental compound, washed and added to wells in which T cell proliferation was induced by CD3 mAb plus APC; % proliferation of CFSE-labeled conventional (Tcon) cells is shown in blue for each Treg:Tcon ratio. […] Flow cytometry confirmed marked or moderate down-regulation of Foxp3 expression by Treg cells exposed to potential inhibitor for 2 hrs. […]

UHRF1 = assay: Immunoblot of UHRF1 level in treated Jurkat cells; format: cell-based; conditions: immunoblot (FIG. 6)
Description: as §1, §2

TC1 lung tumor = assay: TC1 flank tumor model in immunocompetent mice; format: in vivo, B6 mice
Description: Inhibition was statistically significant at the p<0.05 level (**).
USP7 targeting inhibits flank tumor growth via a Treg-dependent mechanism in immunocompetent mice (FIGS. 8A and 8B). Eight week-old B6 mice were injected with 5×10^5 TC1 tumor cells, and 1 week later, when tumors had reached ˜100 mm^3, mice were implanted with 14 day Alzet pumps containing vehicle or USP7i at doses 0.6 mg/kg, 1 mg/kg, and 6 mg/kg. Tumor growth was measured twice weekly for 2 weeks, and the study continued for an additional time period without further dosing. At sacrifice, spleens, draining lymph nodes (DLN), and tumors can be assessed by flow cytometry, histology, immunohistology and qPCR. Such studies can be performed in both immunocompetent and immunodeficient mice.

[1] = pooled analysis of 14 phase I-III studies, various doses; cited from earlier work

CS(=O)(=O)c1cccc(NC(=O)c2cc([N+](=O)[O-])c(Sc3c(Cl)cncc3Cl)s2)c1 [Compound 5, 5-[(3,5-dichloropyridin-4-yl)sulfanyl]-N-[3-(methylsulfonyl)phenyl]-4-nitrothiophene-2-carboxamide]
HDM2 level (HDM2): decrease
covalent adduct formation with USP7 core (USP7core WT): formed a covalent adduct
USP7 catalytic activity returned after washout (USP7; washed, after 48 hours): about 55%
USP7 catalytic activity returned after washout (USP7; washed, after 72 hours): 68%
USP7 activity after pulse treatment (USP7; Jurkat cells, 10 μM for 2 h, washed, even after 72 h (FIG. 5B)): prolonged inhibition of USP7 activity
catalytic activity of isolated USP7 (USP7; Jurkat cells, incubation with inhibitor for 1 h (FIG. 5A)): significant inhibition of catalytic activity
covalent adduct formation with USP7 core C223A (USP7 core C223A): failed to form an adduct
Treg suppressive functions (Murine Tregs): marked impairment of Treg suppressive functions
UHRF1 level (UHRF1): decrease
TC1 lung tumor growth (TC1 lung tumor; Day 16, statistically significant p<0.05 (FIG. 8A, 8B)): inhibition of TC1 lung tumor growth
tumor regression (TC1 lung tumor; TC1 tumors (FIG. 8B)): complete tumor regression in several mice

ipilimumab
patients with immune-related adverse effects [1]: 64%
